Measurements from patent publication US20260193227A1, “THERAPEUTIC COMPOUNDS AND METHODS” (UNIVERSITY OF IOWA RESEARCH FOUNDATION, priority 2022, published 2026).

Tests used:
[1] = molecular target: T1, RAD52-ssDNA interaction (Homo sapiens, UniProt P43351); test: FRET-based inhibition of the RAD52-ssDNA interaction; type: binding; conditions: for IC50: 6 nM RAD52, 1 nM Cy3-dT30-Cy5 ssDNA, 25° C., value ± fitting error; for selectivity towards RAD52 over RPA: in vitro FRET-based assays
T1 construct: 6xHis; made in house
T1 sequence (P43351 1-418): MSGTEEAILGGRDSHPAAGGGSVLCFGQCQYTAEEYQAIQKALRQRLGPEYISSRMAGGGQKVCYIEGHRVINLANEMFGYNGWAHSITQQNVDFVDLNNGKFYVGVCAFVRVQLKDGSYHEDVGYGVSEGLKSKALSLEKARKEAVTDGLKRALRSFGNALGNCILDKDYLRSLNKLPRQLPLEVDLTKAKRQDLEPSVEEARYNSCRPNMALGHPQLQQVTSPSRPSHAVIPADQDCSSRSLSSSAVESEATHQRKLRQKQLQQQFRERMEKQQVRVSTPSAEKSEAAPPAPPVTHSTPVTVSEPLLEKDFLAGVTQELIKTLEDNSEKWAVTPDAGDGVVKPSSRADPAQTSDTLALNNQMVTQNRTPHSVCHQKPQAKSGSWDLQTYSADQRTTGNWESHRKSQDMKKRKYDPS
Method: (§1) Proteins: The 6×His-tagged human RAD52 proteins (wild type and mutants) and untagged human RPA were expressed and purified as previously described in (Hengel S R, eLife. 2016; 5; Grimme J M, et al., Nucleic Acids Res. 2010; 38(9):2917-30; and Henricksen L A, et al., The Journal of biological chemistry. 1994; 269(15):11121-32). RPA and RAD52 protein concentrations were determined by measuring absorbance at 280 nm using extinction coefficients of 88,830 M^−1 cm^−1 and 40,470 M^−1 cm^−1, respectively.
(§2) FRET-based DNA binding and inhibition assays: FRET-based that monitor the RAD52-ssDNA, RPA-ssDNA and RAD52-RPA-ssDNA binding were carried out as previously described (Hengel S R, eLife. 2016; 5; Grimme J M, et al., Nucleic Acids Res. 2010; 38(9):2917-30; and Grimme J M, Spies M. FRET-based assays to monitor DNA binding and annealing by Rad52 recombination mediator protein. Methods in molecular biology (Clifton, NJ). 2011; 745:463-83) using Cary Eclipse Spectrofluorimeter (Agilent) at 25° C., in 5 mm quartz cuvettes, and in buffer containing 30 mM Tris-Acetate (pH 7.5) and 1 mM DTT. Cy3 dye was excited at 530 nm and its emission was monitored at 565 nm. Emission of Cy5 acceptor fluorophore excited through the energy transfer from Cy3 donor is monitored at 660 nm simultaneously with emission of Cy3 dye. Both the excitation and the emission slits were set to 10 nm. All experiments were carried out using 1 nM (molecules) Cy3-dT30-Cy5 ssDNA. The optimal concentrations of the RAD52 (6 nM) and RPA (1 nM) proteins were selected by titrating the respective protein into 1 nM Cy3-dT30-Cy5 solution, and chosen based on the largest separation of the FRET values corresponding to the protein bound and free DNA.
(§3) The inhibition of the RAD52-ssDNA, RPA-ssDNA and RAD52-RPA-ssDNA complexes was evaluated by titrating each compound to the respective complex, measuring Cy3 and Cy5 fluorescence, and calculating FRET as previously described (Hengel, S. R., et al., eLife, 5).
(§4) Spectral properties of many compounds overlapped with the Cy3 and Cy5 fluorescence. To correct the calculated FRET values for the compound signal, the fluorogenic compounds were titrated into buffer and into solution of 1 nM Cy3-dT30-Cy5. For all tested compounds, the change in the signal in the Cy3 and Cy5 channels with and without Cy3/Cy5-labeled DNA present was the same. […] To account for the dye fluorescence, for each compound concentration, the apparent change in FRET of the ssDNA in the presence the compound was subtracted from the respective FRET signal of the RAD52-ssDNA, RPA-ssDNA or RAD52-ssDNA-RPA complex at the same inhibitor concentration. The IC50 values were calculated by fitting the corrected FRET data to the four-parameter dose response model using GraphPad Prism. All data are shown as average for at least three independent experiments ±standard deviation. The IC50 values are presented with their respective fitting error.

[2] = tested on: EUFA423F cells; test: CellTiter-Glo cell viability, BRCA2-mutated cells; type: cell-based, human; conditions: for toxicity towards EUFA423 cells: BRCA2-mutated cells, yes/no; for toxicity / selective toxicity towards BRCA2-mutated cells in cell viability assays: EUFA423F versus EUFA423F HA, CellTiter-Glo, 72 hours
Text: (§5) Cell lines: EUFA423F cells that are derived from a Fanconi Anemia patient with complementation group D1 and have biallelic mutations (7691 insAT and 9900 insA) in BRCA2 that result in two different truncated forms of BRCA2 (Howlett N G, et al., Science (New York, NY). 2002; 297(5581):606-9) and its counterpart complemented with expression vector for full-length BRCA2 (EUFA HA) were a generous gift from Dr. Simon Powell, Molecular Biology Program, Radiation Oncology, Sloan-Kettering Cancer Center, New York, NY).
(§6) Cell proliferation assay: Selective toxicity of the compounds towards human BRCA2 deficient cells was tested in EUFA423F and its complement EUFA423F HA using CellTiter-Glo® Luminescent Cell Viability Assay (Promega, Madison, WI). The cell lines were maintained in DMEM (Gibco/ThermoFisher Scientific, Waltham, MA) supplemented with 10% FBS and 10 mM HEPES (Gibco/ThermoFisher Scientific, Waltham, MA). EUFA423F HA cells were routinely supplemented with G418 in order to maintain the BRCA2 expression plasmid. Both cell lines were seeded in sterile tissue culture treated, white opaque 384-well plates (Perkin Elmer Inc., Waltham, MA) 3000 cells/well for EUFA423F HA and 2500 cells/well for EUFA423F) and allowed to adhere for 24 hours. Compounds dissolved in DMSO were added in the concentration range of 0-100 μM. Controls were treated with equivalent DMSO volumes. The cells were treated with compounds for 72 hours (to ensure that all cells experienced at least two S-phases). Post treatment, the cells were washed, treated with the CellTiter-Glo® reagent was added and the plate was analyzed as using a Gen5 (ver2.1) luminosity plate reader. The luminescence that reports on ATP generation by the surviving cells was normalized for the DMSO treated control as 100%. The normalized luminescence (average±standard deviation for at least three independent measurements obtained with different cell passages) was plotted in GraphPad Prism as a function of compound concentration. Clonogenic Survival: EUFA423F and EUFA423F HA cells were seeded in a 96 well plate. Compounds dissolved in DMSO were added to final concentrations of 0, 50, and 100 μM for the compound of Example 8 and the compound of Example 1, and 0, 5, and 10 μM for the compounds of Examples 2-7. The cells were treated with compounds for 72 hours. Post treatment, cell cultures were harvested by collecting all non-adherent cells in the well, trypsinization of all adherent cells, combining, pelleting and then resuspending in fresh media. Cultures treated with DMSO only were subsequently counted using a hemocytometer and plated at a density of 2000, 200 and 20 cells per well in 6-well culture plates, equal volumes of cultures were plated each inhibitor concentration. Each treatment and cell density conditions for both cell lines were plated in triplicate. After expanding the colonies for a period of 8 days, cultures were fixed with a solution of 70% ethanol and crystal violet for clonogenic survival analysis. Pictures of individual wells were taken using GelCount (Version 1.3.0.4) by Oxford Optronix (Abingdon UK). A colony had to contain at least 50 cells to be counted. The number of surviving colonies following treatment are presented as a percentage of number of colonies in the experiment where the cells were treated with DMSO only.

[3] = molecular target: T2, RPA-ssDNA-RAD52 complex (Homo sapiens, UniProt P43351); test: FRET-based inhibition of the RPA-ssDNA-RAD52 complex; type: binding; conditions: for IC50: value ± fitting error, N/A = no activity
T2 construct: 6xHis; made in house
T2 sequence (P43351 1-418): T1 sequence (P43351 1-418)
Method: as §1, §2, §3, §4

[4] = Solubility in cell culture medium; type: physicochemical; conditions: for solubility: plasma or biological fluid
[5] = tested on: EUFA423F HA cells; test: CellTiter-Glo cell viability, BRCA2-complemented cells; type: cell-based, human; conditions: yes/no
Text: as §5, §6

[6] = molecular target: T3, RPA-ssDNA interaction (Homo sapiens, UniProt P27694); test: FRET-based inhibition of the RPA-ssDNA interaction; type: binding; conditions: 1 nM RPA, 1 nM Cy3-dT30-Cy5 ssDNA; value ± fitting error; N/A = no activity
T3 construct: made in house
T3 sequence (P27694 whole entry): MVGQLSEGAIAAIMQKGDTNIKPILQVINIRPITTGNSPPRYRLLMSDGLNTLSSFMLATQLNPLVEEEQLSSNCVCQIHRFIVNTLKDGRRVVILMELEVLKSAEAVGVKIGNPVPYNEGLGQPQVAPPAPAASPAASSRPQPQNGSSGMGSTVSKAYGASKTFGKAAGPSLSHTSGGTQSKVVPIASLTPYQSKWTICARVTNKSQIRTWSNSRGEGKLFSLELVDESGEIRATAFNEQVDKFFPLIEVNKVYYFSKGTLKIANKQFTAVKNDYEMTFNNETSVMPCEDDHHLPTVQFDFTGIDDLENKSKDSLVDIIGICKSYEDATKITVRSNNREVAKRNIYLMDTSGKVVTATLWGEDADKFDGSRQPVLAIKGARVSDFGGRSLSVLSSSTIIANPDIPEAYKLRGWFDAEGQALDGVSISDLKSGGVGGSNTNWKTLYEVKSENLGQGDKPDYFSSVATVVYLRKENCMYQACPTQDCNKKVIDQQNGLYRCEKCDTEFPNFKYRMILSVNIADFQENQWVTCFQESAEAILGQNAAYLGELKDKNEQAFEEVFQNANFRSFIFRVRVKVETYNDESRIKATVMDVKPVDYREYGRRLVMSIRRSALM
T3 sequence (P15927 whole entry partner): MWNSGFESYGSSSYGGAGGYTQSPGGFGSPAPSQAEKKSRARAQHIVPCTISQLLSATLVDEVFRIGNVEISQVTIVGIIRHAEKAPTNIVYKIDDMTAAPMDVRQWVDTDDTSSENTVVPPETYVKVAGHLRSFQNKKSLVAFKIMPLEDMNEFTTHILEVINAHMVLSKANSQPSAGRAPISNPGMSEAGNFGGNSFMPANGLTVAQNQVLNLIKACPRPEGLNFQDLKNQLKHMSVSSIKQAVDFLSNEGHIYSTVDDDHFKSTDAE
T3 sequence (P35244 whole entry partner): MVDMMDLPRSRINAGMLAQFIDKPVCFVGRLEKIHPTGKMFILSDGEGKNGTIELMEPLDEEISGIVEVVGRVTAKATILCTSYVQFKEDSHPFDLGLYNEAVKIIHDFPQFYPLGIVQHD
Method: as §1, §2, §3, §4

[7] = molecular target: T1, RAD52-ssDNA interaction; conditions: Hengel et al. 2016; cited from earlier work
[8] = tested on: BRCA2-depleted cells; conditions: Hengel et al. 2016; cited from earlier work
[9] = tested on: EUFA423F HA cells; conditions: Clark et al. 2012; Howlett et al. 2002; cited from earlier work
[10] = tested on: EUFA423F cells; conditions: Clark et al. 2012; cited from earlier work

Row | Structure (SMILES) | IC50 [1] [nM] | selectivity towards RAD52 over RPA [1] | toxicity towards EUFA423 cells [2] | toxicity / selective toxicity towards BRCA2-mutated cells in cell viability assays [2] | IC50 [3] [µM] | toxicity towards EUFA423 HA (BRCA2-complemented cells) [5] | IC50 [6] [µM] | further results
1 | Cc1cc([N+](=O)[O-])cn(CC(=O)c2c[nH]c3ccc(Cl)cc23)c1=O [Example 3] | 7970 ± 840 | shows selectivity towards RAD52 over RPA | yes | selectively toxic to BRCA2-mutated cells | 7 ± 0.29 | no | 15.9 ± 1.4 | solubility [4]: > 10 µM
2 | Oc1cc(O)c2c(c1)O[C@H](c1cc(O)c(O)c(O)c1)[C@H](O)C2 [EGC, epigallochatechin] | – | – | – | – | – | – | – | competition with ssDNA binding to RAD52 [7]: competed with ssDNA binding to RAD52; efficacy in BRCA2-depleted cells [8]: effective
3 | C[C@]1(c2nc3c(C(N)=O)cccc3[nH]2)CCCN1 [veliparib] | – | – | – | – | – | – | – | sensitivity of the BRCA2-complemented (HA) cell line to the agent [9]: resistant; sensitivity of EUFA423F cells to the agent [10]: sensitive
4 | O=C(Cn1cc([N+](=O)[O-])cc(F)c1=O)c1c[nH]c2ccc(F)cc12 [Example 2] | – | shows selectivity towards RAD52 over RPA | yes | – | – | no | – | toxicity / selective toxicity towards BRCA2-mutated cells in cell viability assays ([2]; listed as Z58-54): selectively toxic to BRCA2-mutated cells; toxicity / selective toxicity towards BRCA2-mutated cells in cell viability assays ([2]; listed as Z5862216254): effective and specific in cell viability assays; effect on the RPA-ssDNA-RAD52 complex ([3]; FRET titration): unable to dislodge RAD52
5 | O=C(Cn1cc([N+](=O)[O-])cc(Br)c1=O)c1c[nH]c2ccc(Cl)cc12 [Example 7] | 2840 ± 320 | shows selectivity towards RAD52 over RPA | yes | selectively toxic to BRCA2-mutated cells | 4.55 ± 0.16 | no | 28.9 ± 4 | –
6 | CO[C@@]12[C@H](COC(N)=O)C3=C(C(=O)C(C)=C(N)C3=O)N1C[C@@H]1N[C@@H]12 [mitomycin C] | – | – | – | – | – | – | – | sensitivity of the BRCA2-complemented (HA) cell line to the agent [9]: resistant
7 | Cc1ccn(CC(=O)c2c[nH]c3ccc(F)cc23)c(=O)c1[N+](=O)[O-] [Example 4] | – | shows selectivity towards RAD52 over RPA | yes | selectively toxic to BRCA2-mutated cells | – | no | – | solubility [4]: > 10 µM
8 | Cc1c([N+](=O)[O-])ccn(CC(=O)c2c[nH]c3ccc(Br)cc23)c1=O [Example 6] | 2020 ± 120 | shows selectivity towards RAD52 over RPA | no | failed to inhibit both BRCA2-mutated and BRCA2-complemented cells | 0.76 ± 0.05 | no | 1.12 ± 0.13 | solubility / aggregation in cell culture medium [4]: poorly soluble in cell culture medium
9 | O=C(Cn1cc([N+](=O)[O-])cc(Cl)c1=O)c1c[nH]c2ccc(F)cc12 [Example 5] | – | shows selectivity towards RAD52 over RPA | yes | selectively toxic to BRCA2-mutated cells | – | no | – | –
